Results: PubChem BioAssay AID2060510 (Molecular Pharmacology Branch, DTP, NCI, 2025)
Values joined by “and” are separate entries in the source; they are usually repeats but may differ in a detail not shown here. Equal values may be shown once.

Tested on: 439559-082-T-J2-PDC spheroids viability
Test: Anticancer human tumor 439559-082-T-J2-PDC patient-derived colon adenocarcinoma cell line growth inhibition [GQUAD]
Settings: for viability, T/C: stronger effect = lower value; active = viability on the fitted dose curve at most 10% of control; inactive = the rest
Text: DNA G-quadruplex Stabilizer Agents in Combinations in Complex Spheroids
A high-throughput screen of multi-cell type tumor spheroids was designed to identify active combinations of DNA G-quadruplex stabilizer agents and targeted small molecules. Complex spheroids include a stromal component modeled by human endothelial cells (HUVEC) and fibroblasts modeled by human mesenchymal stem cells (MSCs). The concentration ranges selected for each drug and investigational agent were based upon clinically achievable concentrations if the clinical Cmax of the agent was known.
Compounds. The drugs and investigational agents: pidnarulex (CX-5461; NSC782164), APTO-253 (NSC789042), BRACO-19 (NSC847499), peposertib (NSC802822), ceralasertib (NSC780249), elimusertib (NSC800525), camonsertib (NSC841442), AZD-1390 (NSC803789), olaparib (NSC753686), talazoparib (NSC767125), ART-558 (NSC835418), sotorasib (NSC818433), MRTX-1133 (NSC836407), SN-38 (NSC673596), topotecan (NSC609699), etoposide (NSC141540), doxorubicin (NSC123127), gemcitabine (NSC613327), 5-fluorouracil (NSC19893), paclitaxel (NSC125973), vemurafenib (NSC761431), panobinostat (NSC761190), R-306465 (JNJ-16241199; NSC773264), adavosertib (NSC754352), TP-3654 (NSC805149), carboplatin (NSC241240), KSQ-4279 (NSC840948), and staurosporine (NSC755774) were obtained from the National Cancer Institute (NCI) Developmental Therapeutics Program Chemical Repository (34). The FDA-approved anticancer drug set is available from the NCI Developmental Therapeutics Program. […] The stock solutions were prepared in dimethyl sulfoxide (DMSO, Sigma-Aldrich, St. Louis, MO, cat. D2650) at 800-fold the tested concentration and stored at -70 degrees C prior to their use. All drugs and investigational agents were tested over a range starting from a high concentration at or near the clinical Cmax and decreasing in half-log increments. If the clinical Cmax for an agent had not been determined, the highest concentration tested was 10 microM.
2.3 Cell Culture. All cells were maintained in an incubator at 37 degrees C and 5% CO2 with 95% humidity. The PDC lines were cultured according to standard operating procedures established by the NCI PDMR. All PDCs were thawed and cultured in Matrigel-coated flasks prepared with a working solution of 1X Ham's F-12 nutrient mix, without supplementation (Invitrogen, cat. 11765054), 100 U/mL penicillin-streptomycin (Invitrogen, cat. 15140122), and 2.5% Matrigel (Corning Inc., cat. 354248) for the first three passages. The 857933-349-R-J2-PDC line was cultured in 6C/Colon 1B media, which includes advanced DMEM/F-12 (Thermo Fisher Scientific, cat. 12634028), 10 mM HEPES (Thermo Fisher Scientific, cat. 15630080), 1X GlutaMAX supplement (Thermo Fisher Scientific, cat. 35050061), 0.1 mg/mL primocin (InvivoGen, cat. ant-pm-2), 10% defined fetal bovine serum, heat inactivated (HyClone Laboratories Inc., cat. SH30070.03HI), 50% L-WRN conditioned media (ATCC, cat. CRL-3276), 1.25 mM N-Acetyl-L-cysteine (Sigma-Aldrich, cat. A9165), 10 mM nicotinamide (Sigma-Aldrich, cat. N0636), 1X B-27 supplement (Thermo Fisher Scientific, cat. 17504044), 1X N-2 supplement (Thermo Fisher Scientific, cat. 17502048), 10 microM Y-27632 dihydrochloride (Tocris Bioscience, cat. 1254), and 50 ng/mL human EGF recombinant protein (Thermo Fisher Scientific, cat. PHG0311). The 485176-168-R4-J1-PDC line was cultured in Panc media, which includes all 6C/Colon 1B media components plus 100 ng/mL human FGF-10 (Thermo Fisher Scientific, cat. 100-26), 500 nM SB-431542 (Selleckchem, cat. S1067), and gastrin (Tocris, cat. 3006).
[…]

[1] = curve of first compound, second compound 0.0316 µM
[2] = curve of first compound, second compound 0.1 µM
[3] = curve of first compound, second compound 0.316 µM
[4] = curve of first compound, second compound 1 µM
[5] = curve of first compound, second compound 3.16 µM
[6] = curve of first compound, second compound 10 µM
[7] = second compound 0.0316 µM, first compound 0.0316 µM
[8] = second compound 0.0316 µM, first compound 0.1 µM
[9] = second compound 0.0316 µM, first compound 0.316 µM
[10] = second compound 0.0316 µM, first compound 1 µM
[11] = second compound 0.0316 µM, first compound 3.16 µM
[12] = second compound 0.0316 µM, first compound 10 µM
[13] = second compound 0.1 µM, first compound 0.0316 µM
[14] = second compound 0.1 µM, first compound 0.1 µM
[15] = second compound 0.1 µM, first compound 0.316 µM
[16] = second compound 0.1 µM, first compound 1 µM
[17] = second compound 0.1 µM, first compound 3.16 µM
[18] = second compound 0.1 µM, first compound 10 µM
[19] = second compound 0.316 µM, first compound 0.0316 µM
[20] = second compound 0.316 µM, first compound 0.1 µM
[21] = second compound 0.316 µM, first compound 0.316 µM
[22] = second compound 0.316 µM, first compound 1 µM
[23] = second compound 0.316 µM, first compound 3.16 µM
[24] = second compound 0.316 µM, first compound 10 µM
[25] = second compound 1 µM, first compound 0.0316 µM
[26] = second compound 1 µM, first compound 0.1 µM
[27] = second compound 1 µM, first compound 0.316 µM
[28] = second compound 1 µM, first compound 1 µM
[29] = second compound 1 µM, first compound 3.16 µM
[30] = second compound 1 µM, first compound 10 µM
[31] = second compound 3.16 µM, first compound 0.0316 µM
[32] = second compound 3.16 µM, first compound 0.1 µM
[33] = second compound 3.16 µM, first compound 0.316 µM
[34] = second compound 3.16 µM, first compound 1 µM
[35] = second compound 3.16 µM, first compound 3.16 µM
[36] = second compound 3.16 µM, first compound 10 µM
[37] = second compound 10 µM, first compound 0.0316 µM
[38] = second compound 10 µM, first compound 0.1 µM
[39] = second compound 10 µM, first compound 0.316 µM
[40] = second compound 10 µM, first compound 1 µM
[41] = second compound 10 µM, first compound 3.16 µM
[42] = second compound 10 µM, first compound 10 µM
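Note: spheroids exposed to the agents for 7 days before readout.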
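Throughout, for viability, T/C: percent of luminescence signal in DMSO vehicle wells taken as 100% viability.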

COc1cc(C2c3cc4c(cc3C(OC3OC5COC(C)OC5C(O)C3O)C3COC(=O)C23)OCO4)cc(OC)c1O (stereo not drawn) + Cc1cnc(CNC(=O)c2c(=O)c3ccc(N4CCCN(C)CC4)nc3n3c2sc2ccccc23)cn1
> 10 µM: IC50 [1] | IC50 [2] | IC50 [3] | IC50 [4] | IC50 [5] | IC50 [6]
inactive: viability, T/C [7] 92.8% | viability, T/C [8] 99.9% | viability, T/C [9] 93.4% | viability, T/C [10] 85.5% | viability, T/C [11] 84.1% | viability, T/C [12] 60.3% | viability, T/C [13] 86.2% | viability, T/C [14] 83.7% | viability, T/C [15] 85.1% | viability, T/C [16] 76.5% | viability, T/C [17] 80.5% | viability, T/C [18] 59.9% | viability, T/C [19] 94.4% | viability, T/C [20] 86.5% | viability, T/C [21] 81.4% | viability, T/C [22] 75.2% | viability, T/C [23] 70.2% | viability, T/C [24] 56.3% | viability, T/C [25] 74.8% | viability, T/C [26] 78.9% | viability, T/C [27] 70.6% | viability, T/C [28] 70% | viability, T/C [29] 64.8% | viability, T/C [30] 55.1% | viability, T/C [31] 63.6% | viability, T/C [32] 73.3% | viability, T/C [33] 66% | viability, T/C [34] 66.5% | viability, T/C [35] 66.2% | viability, T/C [36] 56.3% | viability, T/C [37] 72.3% | viability, T/C [38] 63.6% | viability, T/C [39] 62.5% | viability, T/C [40] 60.8% | viability, T/C [41] 59.8% | viability, T/C [42] 49.8%

O=c1[nH]cc(F)c(=O)[nH]1
inactive: viability, T/C (compound 0.0316 µM) 93.1% and 96.1% and 94.6% | viability, T/C (compound 0.1 µM) 103% and 102% and 97.4% | viability, T/C (compound 0.316 µM) 85.9% and 79.7% and 88.7% | viability, T/C (compound 1 µM) 76.7% and 78.2% and 78.6% | viability, T/C (compound 3.16 µM) 79.4% and 74.2% and 76.8% | viability, T/C (compound 10 µM) 71.5% and 77.1% and 70.3%
> 10 µM: IC50 (curve of compound)

COc1ncnc(C2CC2)c1-c1ncc2cnn(Cc3ccc(-c4nc(C(F)(F)F)cn4C(C)C)cc3)c2n1
inactive: viability, T/C (compound 0.0316 µM) 100% and 106% and 101% | viability, T/C (compound 0.1 µM) 101% and 109% and 97.2% | viability, T/C (compound 0.316 µM) 100% and 90.9% and 94.3% | viability, T/C (compound 1 µM) 104% and 89% and 94.3% | viability, T/C (compound 3.16 µM) 98.7% and 81.9% and 104% | viability, T/C (compound 10 µM) 98.1% and 57.4% and 89.5%
> 10 µM: IC50 (curve of compound)

CC(C)(O)C1CCC(Nc2ccc3ncc(-c4cccc(C(F)(F)F)c4)n3n2)CC1 (stereo not drawn) + Cc1cnc(CNC(=O)c2c(=O)c3ccc(N4CCCN(C)CC4)nc3n3c2sc2ccccc23)cn1
inactive: viability, T/C [7] 95.8% | viability, T/C [8] 96.9% | viability, T/C [9] 102% | viability, T/C [10] 77.2% | viability, T/C [11] 14.2% | viability, T/C [12] 19.1% | viability, T/C [13] 94.4% | viability, T/C [14] 91.4% | viability, T/C [15] 98.1% | viability, T/C [16] 78.8% | viability, T/C [17] 19.9% | viability, T/C [19] 84.9% | viability, T/C [20] 86.8% | viability, T/C [21] 71.3% | viability, T/C [22] 67% | viability, T/C [23] 15.5% | viability, T/C [24] 14.1% | viability, T/C [25] 84.5% | viability, T/C [26] 72.5% | viability, T/C [27] 74.5% | viability, T/C [28] 56.2% | viability, T/C [29] 11.7% | viability, T/C [30] 12.7% | viability, T/C [31] 72.4% | viability, T/C [32] 72.3% | viability, T/C [33] 61% | viability, T/C [34] 51.2% | viability, T/C [37] 63.3% | viability, T/C [38] 56.9% | viability, T/C [39] 57.8% | viability, T/C [40] 25.3%
0.418 µM: IC50 [6]
1.02 µM: IC50 [5]
1.46 µM: IC50 [3]
1.68 µM: IC50 [1]
1.76 µM: IC50 [2]
active: viability, T/C [18] 9.57% | viability, T/C [35] 0.28% | viability, T/C [36] 0.21% | viability, T/C [41] 0.24% | viability, T/C [42] 0.26%
1.18 µM: IC50 [4]
